Experimental data published in US20040214798A1 (priority 2003, published 2004).
Values joined by “and” are separate entries in the source; they are usually repeats but may differ in a detail not shown here. Identical values can stand only once. Like-named read-outs stand apart in the source and are kept apart here.

Assays:
E. coli nitroreductase [1] = molecular target: T1, E. coli nitroreductase (Escherichia coli, UniProt P38489); assay type: biochemical
[2] = system: SKOV3 human ovarian carcinoma cells not infected (NR−); assay: cells; assay type: cell-based
[3] = system: SKOV3 human ovarian carcinoma cells infected with adenovirus expressing E. coli nitroreductase (NR+); assay: Cytotoxicity in SKOV3 cells infected with adenovirus expressing E. coli nitroreductase (NR+), MTT; assay type: cell-based; conditions: for Ratio of IC50 values (NR−/NR+): SKOV3, 18 hour drug exposure; for IC50: adenovirus NR, 100 pfu/cell
hDT7 cells = assay: cells; assay type: cell-based, Chinese hamster; conditions: read-out: IC50 hDT7
T116 cells = assay: cells; assay type: cell-based, Chinese hamster
F179 cells [4] = assay: cells; conditions: Cricetulus griseus, read-out: IC50 F179
E. coli nitroreductase [5] = molecular target: T1, E. coli nitroreductase; assay: in vitro; conditions: pH 7
E. coli nitroreductase [6] = molecular target: T1, E. coli nitroreductase; conditions: pH 7
F179 cells [7] = conditions: read-out: IC50 F179
[8] = 200 μM compound, 1 mM NADH, 1.8 μg E. coli nitroreductase, 10 mM phosphate buffer pH 7.0, 37° C., 250 μL, UV 340 nm
[9] = Homo sapiens, SK-OV-3, 18 h, read-out: IC50 in SKOV3 NR−
[10] = read-out: IC50 in SKOV3 NR+, 18 hour drug exposure
[11] = Cricetulus griseus, V79, 1 h, read-out: IC50 T116
[12] = Cricetulus griseus, V79, 72 h, read-out: IC50 T116
[13] = Homo sapiens, SK-OV-3, 18 h, read-out: IC50 in SKOV3 NR+, 18 hour drug exposure
[14] = 18 hour drug exposure; uninfected cells; read-out: IC50 in SKOV3 NR−
[15] = 18 hour drug exposure, read-out: IC50 in SKOV3 NR+
[16] = 72 hours drug exposure, human NQO1-expressing cells
[17] = 72 hours drug exposure, E. coli nitroreductase-expressing cells, read-out: IC50 T116
[18] = 72 hours drug exposure, vector-only control cells

T1 sequence (P38489 whole entry): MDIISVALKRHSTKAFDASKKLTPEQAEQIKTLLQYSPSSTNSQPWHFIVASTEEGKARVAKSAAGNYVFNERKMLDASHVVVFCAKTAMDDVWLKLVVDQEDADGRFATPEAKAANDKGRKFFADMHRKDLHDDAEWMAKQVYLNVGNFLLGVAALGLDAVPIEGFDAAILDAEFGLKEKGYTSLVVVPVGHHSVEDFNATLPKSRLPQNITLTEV

## CC(OP(N)(=O)N(CCCl)CCCl)c1ccc([N+](=O)[O-])cc1 (single isomer, unassigned) [Compound 15d-A, 1-(4-nitrophenyl)ethyl N,N-bis(2-chloroethyl)phosphordiamidate]
E. coli nitroreductase [1]; [8]
  NR Assay vi (initial velocity): 2.53 nmol/min
[2]; [9]
  IC50: > 1000 µM
[3]
  Ratio of IC50 values (NR−/NR+): >556
[3]; [10]
  IC50: 1.8 µM

## CC(OP(N)(=O)N(CCCl)CCCl)c1ccc([N+](=O)[O-])cc1 (single isomer, unassigned) [Compound 15d-B, 1-(4-nitrophenyl)ethyl N,N-bis(2-chloroethyl)phosphordiamidate]
E. coli nitroreductase [1]; [8]
  NR Assay vi (initial velocity): 1.65 nmol/min
[2]; read-out: IC50 in SKOV3 NR−; 18 hour drug exposure; uninfected cells
  IC50: > 1000 µM
[3]
  Ratio of IC50 values (NR−/NR+): >250
[3]; [10]
  IC50: 4 µM

## NC(=O)c1cc(N2CC2)c([N+](=O)[O-])cc1[N+](=O)[O-] [CB1954, 5-(aziridin-1-yl)-2,4-dinitrobenzamide, reference compound]
hDT7 cells; Cricetulus griseus, V79, 72 h
  IC50: 1.7 µM
T116 cells; [11]
  IC50: 0.306 µM
T116 cells; [12]
  IC50: 0.036 µM
[2]; Homo sapiens, SK-OV-3; 18 hour drug exposure; uninfected cells; read-out: IC50 in SKOV3 NR−
  IC50: 600 µM
[3]; [13]
  IC50: 4 µM
F179 cells [4]; 1 h
  IC50: > 100 µM
F179 cells [4]; 72 h
  IC50: 254 µM
E. coli nitroreductase [5]; E. coli
  half-life: 5 min

## O=[N+]([O-])c1ccc2c(c1)OP(=O)(N(CCCl)CCCl)NC2 (stereo not shown) [Compound 9b, 7-Nitro-2-[bis(2-chloroethyl)amino]-1,3,2-benzoxazaphosphorinane-2-oxide]
hDT7 cells; Cricetulus griseus, V79, 72 h
  IC50: 48 µM
T116 cells
  Ratio of IC50 values (F179/T116): 1.3
T116 cells; [12]
  IC50: 48 µM
[2]; [9]
  IC50: 510 µM
[3]; [13]
  IC50: 410 µM
[3]
  Ratio of IC50 values (NR−/NR+): 1.2
F179 cells [4]; 72 h
  IC50: 61 µM
E. coli nitroreductase [5]
  half-life: 11 min

## O=[N+]([O-])c1ccc2c(c1)NP(=O)(N(CCCl)CCCl)OC2 (stereo not shown) [Compound 9c, 7-Nitro-2-[bis(2-chloroethyl)amino]-3,1,2-benzoxazaphosphorinane-2-oxide]
E. coli nitroreductase [1]; [8]
  NR Assay vi (initial velocity): 1.63 nmol/min
hDT7 cells; Cricetulus griseus, V79, 72 h
  IC50: > 100 µM
T116 cells
  Ratio of IC50 values (F179/T116): >33
T116 cells; [12]
  IC50: 3 µM
[2]; [9]
  IC50: 540 µM
[3]; [13]
  IC50: 55 µM
[3]
  Ratio of IC50 values (NR−/NR+): 9.8
F179 cells [4]; 72 h
  IC50: > 100 µM
E. coli nitroreductase [5]
  half-life: 13 min

## O=[N+]([O-])c1ccc2c(c1)NP(=O)(N(CCCl)CCCl)NC2 (stereo not shown) [Compound 9d, 7-Nitro-2-[bis(2-chloroethyl)amino]-1,3,2-benzodiazaphosphorinane-2-oxide]
hDT7 cells; Cricetulus griseus, V79, 72 h
  IC50: > 100 µM
T116 cells
  Ratio of IC50 values (F179/T116): ˜1
T116 cells; [12]
  IC50: > 100 µM
F179 cells [4]; 72 h
  IC50: > 100 µM
E. coli nitroreductase [5]
  half-life: 7.8 min

## NP(=O)(OCc1ccccc1[N+](=O)[O-])N(CCCl)CCCl (stereo not shown) [Compound 15a, 2-nitrobenzyl N,N-bis(2-chloroethyl)phosphordiamidate]
E. coli nitroreductase [1]; [8]
  NR Assay vi (initial velocity): 0.46 nmol/min
[2]; [9]
  IC50: 950 µM
[3]; [13]
  IC50: 90 µM
[3]
  Ratio of IC50 values (NR−/NR+): 11

## NP(=O)(OCc1cccc([N+](=O)[O-])c1)N(CCCl)CCCl (stereo not shown) [Compound 15b, 3-nitrobenzyl N,N-bis(2-chloroethyl)phosphordiamidate]
E. coli nitroreductase [1]; [8]
  NR Assay vi (initial velocity): 1.23 nmol/min
[2]; [9]
  IC50: 820 µM
[3]; [13]
  IC50: 240 µM
[3]
  Ratio of IC50 values (NR−/NR+): 3.4

## NP(=O)(OCc1ccc([N+](=O)[O-])cc1)N(CCCl)CCCl (stereo not shown) [Compound 15c, 4-nitrobenzyl N,N-bis(2-chloroethyl)phosphordiamidate]
E. coli nitroreductase [1]; [8]
  NR Assay vi (initial velocity): 2.31 nmol/min
hDT7 cells; Cricetulus griseus, V79, 72 h
  IC50: 27 µM
T116 cells
  Ratio of IC50 values (F179/T116): 20,833 and >10,000
T116 cells; [11]
  IC50: 0.01 µM
T116 cells; Cricetulus griseus, V79, 1 h, read-out: IC50 in E. coli nitroreductase-expressing T116 cells
  IC50: 0.01 µM
T116 cells; [12]
  IC50: 0.003 µM
T116 cells; Cricetulus griseus, V79, 72 h, read-out: IC50 in E. coli nitroreductase-expressing T116 cells
  IC50: 0.003 µM
[2]; [9]
  IC50: > 1000 µM
[3]; [13]
  IC50: 1.1 µM
[3]
  Ratio of IC50 values (NR−/NR+): >909
F179 cells [4]; 1 h
  IC50: > 100 µM
F179 cells [4]; 72 h
  IC50: 62.5 µM

## NC(=O)c1cc(COP(N)(=O)N(CCCl)CCCl)ccc1[N+](=O)[O-] (stereo not shown) [Compound 15e, 3-carboxamide-4-nitrobenzyl N,N-bis(2-chloroethyl)phosphordiamidate]
E. coli nitroreductase [1]; [8]
  NR Assay vi (initial velocity): 0.38 nmol/min
[2]; [14]
  IC50: > 1000 µM
[3]; [15]
  IC50: 41 µM
[3]
  Ratio of IC50 values (NR−/NR+): >24

## COC(=O)c1cc(COP(N)(=O)N(CCCl)CCCl)ccc1[N+](=O)[O-] (stereo not shown) [Compound 15f, 3-methoxycarbonyl-4-nitrobenzyl N,N-bis(2-chloroethyl) phosphordiamidate]
E. coli nitroreductase [1]; [8]
  NR Assay vi (initial velocity): 0.30 nmol/min
[2]; [14]
  IC50: 400 µM
[3]; [15]
  IC50: 2.1 µM
[3]
  Ratio of IC50 values (NR−/NR+): 190

## Cc1cc(COP(N)(=O)N(CCCl)CCCl)ccc1[N+](=O)[O-] (stereo not shown) [Compound 15g, 3-methyl-4-nitrobenzyl N,N-bis(2-chloroethyl)phosphordiamidate]
E. coli nitroreductase [1]; [8]
  NR Assay vi (initial velocity): 1.61 nmol/min
[2]; [9]
  IC50: 510 µM
[3]; [13]
  IC50: 3.3 µM
[3]
  Ratio of IC50 values (NR−/NR+): 155

## COc1cc(COP(N)(=O)N(CCCl)CCCl)ccc1[N+](=O)[O-] (stereo not shown) [Compound 15h, 3-methoxy-4-nitrobenzyl N,N-bis(2-chloroethyl)phosphordiamidate]
E. coli nitroreductase [1]; [8]
  NR Assay vi (initial velocity): 4.40 nmol/min
[2]; [9]
  IC50: 910 µM
[3]; [13]
  IC50: 3.1 µM
[3]
  Ratio of IC50 values (NR−/NR+): 294

## COc1cc([N+](=O)[O-])ccc1COP(N)(=O)N(CCCl)CCCl (stereo not shown) [Compound 15i, 2-methoxy-4-nitrobenzyl N,N-bis(2-chloroethyl)phosphordiamidate]
E. coli nitroreductase [1]; [8]
  NR Assay vi (initial velocity): 12.56 nmol/min
[2]; [9]
  IC50: > 1000 µM
[3]; [13]
  IC50: 1.8 µM
[3]
  Ratio of IC50 values (NR−/NR+): >556

## O=[N+]([O-])c1ccc([C@H]2CCO[P@@](=O)(N(CCCl)CCCl)N2)cc1 [cis-13b, 2-[Bis(2-chloroethyl)amino]-4-(p-nitrophenyl)-2H-1,3,2-oxazaphosphorinane 2-oxide]
hDT7 cells
  IC50: > 100 µM
T116 cells
  Ratio of IC50 values (F179/T116): >2.2
T116 cells; read-out: IC50 T116
  IC50: 45.3 µM
[2]; [14]
  IC50: > 1000 µM
[3]; [15]
  IC50: 510 µM
[3]
  Ratio of IC50 values (NR−/NR+): >2
E. coli nitroreductase [6]
  NR assay t1/2 (half-life of reduction by E. coli nitroreductase): 11.9 min
F179 cells [7]
  IC50: > 100 µM

## O=[N+]([O-])c1ccc([C@@H]2CCN[P@](=O)(N(CCCl)CCCl)O2)cc1 [cis-13c, 2-[Bis(2-chloroethyl)amino]-6-(p-nitrophenyl)-2H-1,3,2-oxazaphosphorinane 2-oxide]
E. coli nitroreductase [1]; [8]
  NR Assay vi (initial velocity): 2.33 nmol/min
hDT7 cells
  IC50: > 100 µM
[2]; [14]
  IC50: 680 µM
[3]; [15]
  IC50: 4.5 µM
[3]
  Ratio of IC50 values (NR−/NR+): 151
E. coli nitroreductase [6]
  NR assay t1/2 (half-life of reduction by E. coli nitroreductase): 5.2 min

## O=[N+]([O-])c1ccc([C@H]2CCN[P@@](=O)(N(CCCl)CCCl)N2)cc1 [cis-13d, 2-[Bis(2-chloroethyl)amino]-4-(p-nitrophenyl)-2H-1,3,2-diazaphosphorinane 2-oxide]
hDT7 cells
  IC50: 46.8 µM
T116 cells
  Ratio of IC50 values (F179/T116): 12.3
T116 cells; read-out: IC50 T116
  IC50: 4.6 µM
E. coli nitroreductase [6]
  NR assay t1/2 (half-life of reduction by E. coli nitroreductase): 6.4 min
F179 cells [7]
  IC50: 56.8 µM

## O=[N+]([O-])c1ccc([C@H]2CCO[P@@](=O)(N(CCCl)CCCl)N2)cc1 [trans-13b, 2-[Bis(2-chloroethyl)amino]-4-(p-nitrophenyl)-2H-1,3,2-oxazaphosphorinane 2-oxide]
hDT7 cells; [16]
  IC50: > 100 µM
T116 cells
  Ratio of IC50 values (F179/T116): >1.9
T116 cells; [17]
  IC50: 51.5 µM
[2]; read-out: IC50 in SKOV3 NR−
  IC50: 820 µM
[3]; [15]
  IC50: 250 µM
[3]
  Ratio of IC50 values (NR−/NR+): 3.3
E. coli nitroreductase [6]
  NR assay t1/2 (half-life of reduction by E. coli nitroreductase): 2.9 min
F179 cells [7]; [18]
  IC50: > 100 µM

## O=[N+]([O-])c1ccc([C@@H]2CCN[P@](=O)(N(CCCl)CCCl)O2)cc1 [trans-13c, 2-[Bis(2-chloroethyl)amino]-6-(p-nitrophenyl)-2H-1,3,2-oxazaphosphorinane 2-oxide]
E. coli nitroreductase [1]; pH 7
  NR Assay vi (initial velocity): 3.54 nmol/min
hDT7 cells; [16]
  IC50: > 100 µM
T116 cells
  Ratio of IC50 values (F179/T116): 22,519
T116 cells; 1 hour drug exposure
  Ratio of IC50 values (F179/T116): >602
T116 cells; 1 hour drug exposure, read-out: IC50 T116
  IC50: 0.166 µM
T116 cells; [17]
  IC50: 0.027 µM
[2]; read-out: IC50 in SKOV3 NR−
  IC50: > 1000 µM
[3]; [15]
  IC50: 5 µM
[3]
  Ratio of IC50 values (NR−/NR+): >200
E. coli nitroreductase [6]
  NR assay t1/2 (half-life of reduction by E. coli nitroreductase): 3.9 min
F179 cells [7]; 1 hour drug exposure
  IC50: > 100 µM

## O=[N+]([O-])c1ccc([C@H]2CCN[P@@](=O)(N(CCCl)CCCl)N2)cc1 [trans-13d, 2-[Bis(2-chloroethyl)amino]-4-(p-nitrophenyl)-2H-1,3,2-diazaphosphorinane 2-oxide]
hDT7 cells; [16]
  IC50: > 100 µM
T116 cells
  Ratio of IC50 values (F179/T116): >2.1
T116 cells; [17]
  IC50: 48.3 µM
E. coli nitroreductase [6]
  NR assay t1/2 (half-life of reduction by E. coli nitroreductase): 4.2 min
F179 cells [7]; [18]
  IC50: > 100 µM
